For this assay, the system named is P388 leukemia ip, CD2F1 mice, survival T/C. The experiment in a line: NCI In Vivo Anticancer Drug Screen. Data for tumor model P388 Leukemia (intraperitoneal) in CD2F1 (CDF1) mice. The conditions noted are these: endpoint: median survival time, higher = longer survival. An outline of the steps:
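Mice carrying the transplanted tumor received test compound or vehicle. Survival was recorded in each group, and the value is the treated-group measurement divided by that of the vehicle-treated control group.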

Setting [1] is: dose: 50.0 mg/kg/injection, schedule: Q01DX009 (ip), vehicle: Klucel (hydroxypropylcellulose) (HPC).
[2] abbreviates: dose: 100.0 mg/kg/injection, schedule: Q01DX009 (ip), vehicle: Klucel (hydroxypropylcellulose) (HPC).
The mark [3] stands for this setting: dose: 200.0 mg/kg/injection, schedule: Q01DX009 (ip), vehicle: Klucel (hydroxypropylcellulose) (HPC).
Setting [4] is: dose: 50.0 mg/kg/injection, schedule: Q01DX005 (ip), vehicle: Klucel (hydroxypropylcellulose) (HPC).
The mark [5] stands for this setting: dose: 100.0 mg/kg/injection, schedule: Q01DX005 (ip), vehicle: Klucel (hydroxypropylcellulose) (HPC).

The structures appear in SMILES notation. “And” between values parts separate entries of the source, which are not always exact repeats. Equal values may be shown once. Inconclusive results and toxic doses are left out.

For `C1CSCCSCCCSCCSC1`, the T/C (dose: 25.0 mg/kg/injection, schedule: Q01DX009 (ip), vehicle: saline with Tween-80) is 91 % of control; the T/C (dose: 50.0 mg/kg/injection, schedule: Q01DX009 (ip), vehicle: saline with Tween-80) was 106 % of control and 90 % of control; the T/C (dose: 100.0 mg/kg/injection, schedule: Q01DX009 (ip), vehicle: saline with Tween-80) is 91 % of control and 92 % of control; the T/C (dose: 200.0 mg/kg/injection, schedule: Q01DX009 (ip), vehicle: saline with Tween-80) was 96 % of control; the T/C (dose: 400.0 mg/kg/injection, schedule: Q01DX009 (ip), vehicle: saline with Tween-80) was 91 % of control.
For the compound `COc1ccc2c(c1OC)CCN1C3=C(CC(OC(=O)c4ccccc4)CC3)C(=O)CC21` (stereo not drawn), the T/C (dose: 100.0 mg/kg/injection, schedule: Q01DX001 (ip), vehicle: saline sonified) was 100 % of control; the T/C (dose: 200.0 mg/kg/injection, schedule: Q01DX001 (ip), vehicle: saline sonified) is 110 % of control; the T/C (dose: 400.0 mg/kg/injection, schedule: Q01DX001 (ip), vehicle: saline sonified) was 110 % of control.
Turning to `CCOC(=O)C1=C(C)NC(C)=C(C(=O)OCC)C1c1ccc(OC)cc1`, the T/C is, setting by setting: (dose: 25.0 mg/kg/injection, schedule: Q01DX009 (ip), vehicle: Klucel (hydroxypropylcellulose) (HPC)) 94 % of control; under setting [1], 91 % of control; under setting [2], 100 % of control; under setting [3], 101 % of control.
As for `C[CH2][Ge]([CH2]C)[CH2]C.C[CH2][Ge]([CH2]C)[CH2]C.[CH3][Ge][CH3]`, the T/C by setting is: (dose: 50.0 mg/kg/injection, schedule: Q01DX009 (ip), vehicle: saline) 90 % of control; (dose: 100.0 mg/kg/injection, schedule: Q01DX009 (ip), vehicle: saline) 90 % of control; (dose: 200.0 mg/kg/injection, schedule: Q01DX009 (ip), vehicle: saline) 92 % of control.
On to `N#C/C(=N\NC(=O)c1ccccc1)c1ccccc1`, for which the T/C is, setting by setting: (dose: 12.5 mg/kg/injection, schedule: Q01DX005 (ip), vehicle: saline with Tween-80) 100 % of control; (dose: 25.0 mg/kg/injection, schedule: Q01DX005 (ip), vehicle: saline with Tween-80) 95 % of control; (dose: 50.0 mg/kg/injection, schedule: Q01DX005 (ip), vehicle: saline with Tween-80) 103 % of control and 95 % of control.
Consider `Cc1ccc(N=C(c2ccccc2)C2C(=O)c3ccccc3C2=O)cc1`, for which the T/C by setting is: under setting [4], 97 % of control; under setting [5], 97 % of control; (dose: 200.0 mg/kg/injection, schedule: Q01DX005 (ip), vehicle: Klucel (hydroxypropylcellulose) (HPC)) 94 % of control.
Take `CC1CCC2(C(=O)O)CCC3(C)C(=CCC4C5(C)CC(O)C(O)C(C)(CO)C5C(O)CC43C)C2C1C` (stereo not drawn): the T/C is 90 % of control (dose: 25.0 mg/kg/injection, schedule: Q01DX005 (ip), vehicle: Klucel (hydroxypropylcellulose) (HPC)); 92 % of control under setting [4]; 95 % of control under setting [5].
Take `NS(=O)(=O)c1ccc(NC(=O)CN(C(=O)C(F)(F)F)C2CCCC2)cc1`: the T/C under setting [1] is 113 % of control, the T/C under setting [2] was 109 % of control and the T/C under setting [3] is 109 % of control.
As to `Cc1cc(NS(=O)(=O)c2ccc(NCc3c4ccccc4nc4cc(Cl)ccc34)cc2)no1`, the T/C by setting is: (dose: 60.0 mg/kg/injection, schedule: Q01DX005 (ip), vehicle: saline with Tween-80) 94 % of control; (dose: 120.0 mg/kg/injection, schedule: Q01DX005 (ip), vehicle: saline with Tween-80) 94 % of control; (dose: 240.0 mg/kg/injection, schedule: Q01DX005 (ip), vehicle: saline with Tween-80) 94 % of control.
`CCOP(=S)(N/N=C/c1cccnc1)OCC`: the T/C is 101 % of control (dose: 100.0 mg/kg/injection, schedule: Q01DX001 (ip), vehicle: Klucel (hydroxypropylcellulose) (HPC)); 101 % of control (dose: 200.0 mg/kg/injection, schedule: Q01DX001 (ip), vehicle: Klucel (hydroxypropylcellulose) (HPC)); 108 % of control (dose: 400.0 mg/kg/injection, schedule: Q01DX001 (ip), vehicle: Klucel (hydroxypropylcellulose) (HPC)).
Consider `CNc1nnnc2c1sc1ccccc12`, for which the T/C is 105 % of control (dose: 100.0 mg/kg/injection, schedule: Q01DX001 (ip), vehicle: saline with Tween-80); 102 % of control (dose: 200.0 mg/kg/injection, schedule: Q01DX001 (ip), vehicle: saline with Tween-80); 104 % of control (dose: 400.0 mg/kg/injection, schedule: Q01DX001 (ip), vehicle: saline with Tween-80).
For the compound `O=C1c2cc(I)cc(I)c2NC(O)c2cccn21` (stereo not drawn), the T/C is, setting by setting: (dose: 0.1 mg/kg/injection, schedule: Q01DX005 (ip), vehicle: water) 102 % of control; (dose: 0.2 mg/kg/injection, schedule: Q01DX005 (ip), vehicle: water) 98 % of control; (dose: 0.4 mg/kg/injection, schedule: Q01DX005 (ip), vehicle: water) 102 % of control; (dose: 0.8 mg/kg/injection, schedule: Q01DX005 (ip), vehicle: water) 98 % of control; (dose: 1.6 mg/kg/injection, schedule: Q01DX005 (ip), vehicle: water) 99 % of control; (dose: 5.0 mg/kg/injection, schedule: Q01DX005 (ip), vehicle: distilled water + Tween-80) 94 % of control. Moreover, the T/C (dose: 10.0 mg/kg/injection, schedule: Q01DX005 (ip), vehicle: distilled water + Tween-80) was 95 % of control; the T/C (dose: 20.0 mg/kg/injection, schedule: Q01DX005 (ip), vehicle: distilled water + Tween-80) is 102 % of control; the T/C (dose: 40.0 mg/kg/injection, schedule: Q01DX005 (ip), vehicle: distilled water + Tween-80) is 102 % of control; the T/C (dose: 80.0 mg/kg/injection, schedule: Q01DX005 (ip), vehicle: distilled water + Tween-80) was 98 % of control.
As to `COc1cccc2c1C(=O)c1c(O)c3c(c(O)c1C2=O)C[C@@](O)(C(O)CO)C[C@@H]3OC1CC(N(Cc2ccccc2)Cc2ccccc2)C(O)C(C)O1` (stereo partly drawn), the T/C (dose: 6.25 mg/kg/injection, schedule: Q04DX003 (ip), vehicle: water) is 100 % of control; the T/C (dose: 12.5 mg/kg/injection, schedule: Q04DX003 (ip), vehicle: water) is 109 % of control; the T/C (dose: 25.0 mg/kg/injection, schedule: Q04DX003 (ip), vehicle: water) is 100 % of control; the T/C (dose: 50.0 mg/kg/injection, schedule: Q04DX003 (ip), vehicle: water) is 170 % of control; the T/C (dose: 100.0 mg/kg/injection, schedule: Q04DX003 (ip), vehicle: water) was 209 % of control and 212 % of control.
`Nc1cc(Cl)ccc1-c1ccccc1`: the T/C under setting [2] is 95 % of control and the T/C under setting [3] is 92 % of control.
